{
  "source": "patent US20220401461A1",
  "about": "“Pharmaceutical Composition for Protecting Cartilage” (Kyoto University, priority 2019, published 2022)",
  "key": {"human chondrocytes": {"system": "human chondrocytes", "assay": "Viable cells (CCK-8) in monolayer human chondrocytes cultured in the presence of tunicamycin", "type": "cell-based", "settings": "tunicamycin 3 μg/mL and KUS121 100 μM for 24 hours, then 0.5% FBS medium for 48 hours; FIG. 6", "experimental": "Chondrocytes were collected from a knee joint removed from a patient in knee replacement surgery. The cells were cultured in DMEM-F12 (Gibco, 11330-032) on a 24-well plate to 70-80% confluence and cultured in the medium without FBS for further 24 hours. The cells were then cultured in the medium containing tunicamycin (3 μg/mL) and KUS121 (100 μM) for 24 hours. The medium was replaced with the medium containing 0.5% FBS and the cells were cultured for 48 hours. For counting viable cells, CCK-8 (DOJINDO LABORATORIES) was added, which is a kit for cell counting comprising WST8 as a chromogenic substrate. The cells were incubated for 15 minutes at 37° C. and the absorbances (450 nm, 570 nm) were determined. Viable cells were decreased by adding tunicamycin, but not decreased in the presence of KUS121."}, "[1]": {"system": "p-JNK in human chondrocytes", "assay": "Western blotting for p-JNK and JNK in human chondrocytes cultured in the presence of tunicamycin", "type": "cell-based", "settings": "tunicamycin 3 μg/mL; KUS121 12.5, 25, 50, or 100 μM; 8 hours; in a dose-dependent manner; FIG. 9", "experimental": "(§1) Human chondrocytes were cultured to 70-80% confluence. Tunicamycin (3 μg/mL) and KUS121 (12.5, 25, 50, or 100 μM) were added to the medium and the cells were cultured for further 8 hours. Proteins were collected from the cells and subjected to Western blotting. As primary antibodies, p-JNK (Cell Signaling Technology, #4668), JNK (Cell Signaling Technology, #9252), and β-actin (Cell Signaling Technology, #5125) were used. KUS121 suppressed expression of phosphorylated JNK (p-JNK), a MAP kinase, in a dose-dependent manner."}, "[2]": {"system": "Bip and CHOP in mouse chondrocytes", "assay": "Western blotting for Bip and CHOP in mouse chondrocytes cultured in the presence of tunicamycin", "type": "cell-based", "settings": "tunicamycin 3 μg/mL; KUS121 50 or 100 μM; 6 hours; FIG. 4", "experimental": "(§2) Cells of mouse teratocarcinoma-derived cell line ATDCS (J Cell Biol. 1996 April; 133(2):457-68) were cultured in DMEM/Ham's F12 medium containing 5% FBS. The cells were passaged to a 12-well plate at the density of 3×10^4 cells/well and cultured in the presence of insulin (10 μg/ml) (start of differentiation induction, Day 0). The cells were differentiated into chondrocytes by differentiation induction for 14 to 21 days. The cells were used in the following experiments.\nOn Day 15 of the differentiation induction, tunicamycin (3 μg/mL) and KUS121 (50 or 100 μM) were added to the medium and the chondrocytes were cultured for 6 hours. The cells were subjected to Western blotting. As primary antibodies, Bip (Cell Signaling #3177S), CHOP (Proteintech #15204-1-AP), and actin (Sigma #A5441) were used. Expression of Bip and CHOP was suppressed in the presence of KUS121. Bip is an ER stress marker and CHOP induces apoptosis related to ER stress."}, "[3]": {"system": "MMP13 and MMP1 in human chondrocytes", "assay": "Gene expression of MMP13 and MMP1 by real-time PCR in human chondrocytes cultured in the presence of IL-1β", "type": "cell-based", "settings": "IL-1β 2 ng/mL; KUS121 12.5, 25, 50, or 100 μM; 24 hours; in a dose-dependent manner; FIG. 10", "experimental": "Human chondrocytes were cultured on a 24-well plate to 70-80% confluence and cultured in the medium without FBS for 24 hours. The cells were then cultured in the medium containing IL-1β (2 ng/mL) and KUS121 (12.5, 25, 50, or 100 μM) for 24 hours. Messenger RNAs were extracted from the cells and cDNAs were generated by reverse transcription. Gene expression levels of MMP13 and MMP1 were determined by real-time PCR. KUS121 suppressed expression of MMP13 and MMP1, which are collagenases, in a dose-dependent manner."}, "[4]": {"system": "human femorotibial joint cartilage", "assay": "Organ culture of human cartilage: number of viable cells (CCK-8)", "type": "cell-based", "settings": "cartilage of posterolateral femoral condyle; KUS121 100 μM; 72 hours; FIG. 11", "experimental": "From a knee joint removed from a patient in knee replacement surgery cartilage of femorotibial joint (posterolateral femoral condyle) was collected by using a biopsy punch having a diameter of 7 mm. The cartilage was cultured in the medium without FBS for 48 hours and then in the medium containing KUS121 (100 μM) for 72 hours. Number of viable cells was determined by washing the cartilage with PBS, adding CCK-8, incubating the cartilage for 30 minutes at 37° C., and determining the absorbances (450 nm, 570 nm). Number of viable cells was larger in the presence of KUS121."}, "[5]": {"system": "traumatic cartilage damage model rats", "assay": "Traumatic cartilage damage model (periodic compression to knee joints) in rats", "type": "in vivo", "settings": "rat, KUS121 20 mg/ml, 100 μl intraarticularly; for Modified Mankin score of posterolateral femoral condyle: versus control group, FIG. 15", "excerpt": "It is known that a mouse that has been given periodic compression to a knee joint can be used as a model of post-traumatic cartilage damage (Wu P, Sandell L, et al. Arthritis Rheumatol. 2014; 66(5):1256-65). In a similar manner, a rat post-traumatic cartilage damage model was generated. Specifically, a knee of a hind limb was deeply flexed and fixed on the table of Autograph (Shimadzu Corporation) with the patella facing down. A vertical load of 5 N was applied downward from the heel, then 240 loads of 20 N at the maximum were applied with 5-second intervals. […] This model was used for the following experiments.\nKnee joints of 12-week old male Wister rats (five rats per group) were given periodic compression by the method described above. KUS121 (20 mg/ml) in 5% glucose solution (100 μl) was intraarticularly administered to rats in KUS 121 group immediately before the operation and at Day 1, 2, and 3 after the operation. To rats in the control group 5% glucose solution (100 μl) was administered. The rats were sacrificed two or four weeks after the operation. Damages of posterolateral femoral condyle were histologically evaluated."}, "mouse chondrocytes [6]": {"system": "mouse chondrocytes", "assay": "Glucose starvation stress: relative number of viable cells (WST8) in mouse chondrocytes", "type": "cell-based", "settings": "chondrocytes differentiated from ATDCS cells; medium containing no glucose; 100 μM KUS121; five days; FIG. 2", "experimental": "as §2\nThe chondrocytes were cultured in the medium containing no glucose and containing KUS 121 (50 or 100 μM) for five days from Day 17 of the differentiation induction. Relative number of viable cells was determined by using WST8."}, "mouse chondrocytes [7]": {"system": "mouse chondrocytes", "assay": "Tm stress: relative number of viable cells (WST8) in mouse chondrocytes cultured in the presence of tunicamycin", "type": "cell-based", "settings": "chondrocytes differentiated from ATDCS cells; tunicamycin 0.2 μg/mL; KUS121 50 or 100 μM; 40 hours; FIG. 1", "experimental": "as §2\nOn Day 15 of the differentiation induction, tunicamycin (0.2 μg/mL), which induces ER stress, and KUS121 (50 or 100 μM) were added to the medium and the chondrocytes were cultured for 40 hours. Relative number of viable cells was determined by using 2-(2-methoxy-4-nitrophenyl)-3-(4-nitrophenyl)-5-(2,4-disulfophenyl)-2H-tetrazolium monosodium salt (WST8)."}, "[8]": {"system": "caspase 3/7 activity of human chondrocytes", "assay": "Caspase 3/7 activity (Casp3/7 Glo assay) of human chondrocytes cultured in the presence of tunicamycin", "type": "cell-based", "settings": "tunicamycin 3 μg/mL; KUS121 100 μM; 6 hours; FIG. 7", "experimental": "Human chondrocytes were cultured to 70-80% confluence. Tunicamycin (3 μg/mL) and KUS121 (100 μM) were added to the medium and the cells were cultured for further 6 hours. Casp3/7 Glo assay (Promega) was used in accordance with the manufacture's instructions and caspase 3/7 activity was determined by luminometer. The caspase activity was increased by adding tunicamycin, but not increased in the presence of KUS121."}, "[9]": {"system": "Knee osteoarthritis model rats", "assay": "Knee osteoarthritis model (monoiodoacetate, MIA) in rats", "type": "in vivo", "settings": "rat, 50 mg/Kg/day intraperitoneally, two weeks after MIA administration", "experimental": "It is known that intraarticularly administered monoiodoacetate (MIA) damages chondrocytes and suppresses secretin of collagen and proteoglycan to induce osteoarthritis (M. Udo et al., Osteoarthritis Cartilage. 2016, 24:1284-91). Knee osteoarthritis model rats were generated by administering 0.5 mg of monoiodoacetate (MIA) in 25 μl of saline solution into knee joint cavities of both hind limbs of healthy rats. Prior to the MIA administration, 50 mg/Kg/day of KUS121 was administered intraperitoneally for four days. After the MIA administration, the same amount of KUS121 was administered intraperitoneally five days per week.\nTwo weeks after the MIA administration the knee cartilages of the rats were resected, fixed with 10% neutral buffered formalin for about one week, demineralized with Morse's solution (for two weeks) or EDTA (for one month), cleaved along the medial collateral ligament, and embedded in paraffin with the cut surface facing up. Sections were cut every 100-200 μm with a thickness of 3-6 μm. The sections were stained with Safranin-O, which stains chondrocytes, and observed with a fluorescence microscope (KEYENCE BZ9000). […] In addition, three blinded evaluators evaluated ORSI scores for medial femur, lateral femur, medial tibia, and lateral tibia on the basis of the results of the Safranin-O staining. […]"}, "mouse chondrocytes [10]": {"system": "mouse chondrocytes", "assay": "TNFα stress: relative number of viable cells (WST8) in mouse chondrocytes", "type": "cell-based", "settings": "chondrocytes differentiated from ATDCS cells; TNFα 10 ng/mL; KUS121 50 or 100 μM; 48 hours; FIG. 3", "experimental": "as §2\nOn Day 15 of the differentiation induction, TNFα (10 ng/mL), which induces apoptosis, and KUS121 (50 or 100 μM) were added to the medium and the chondrocytes were cultured for 48 hours. Relative number of viable cells was determined by using WST8."}, "[11]": {"system": "cCasp3 in mouse chondrocytes", "assay": "Western blotting for cCasp3 in mouse chondrocytes cultured in the presence of TNFα", "type": "cell-based", "settings": "TNFα 20 ng/mL; KUS121 50 or 100 μM; 48 hours; cCasp3 antibody; FIG. 5", "experimental": "as §2\nOn Day 15 of the differentiation induction, TNFα (20 ng/mL) and KUS121 (50 or 100 μM) were added to the medium and the chondrocytes were cultured for 48 hours. The cells were subjected to Western blotting. As primary antibodies, cCasp3 (Cell Signaling #9661S) and actin (Sigma #A5441) were used. Expression of Casp3, an apoptosis marker, was suppressed in the presence of KUS121."}, "[12]": {"system": "Bip, ATF4, and CHOP in human chondrocytes", "assay": "Western blotting for Bip, ATF4 and CHOP in human chondrocytes cultured in the presence of tunicamycin", "type": "cell-based", "settings": "tunicamycin 3 μg/mL; KUS121 12.5, 25, 50, or 100 μM; 8 hours; in a dose-dependent manner; FIG. 8", "experimental": "as §1, with “Bip” for “p-JNK”, “#3177), ATF4” for “#4668), JNK”, “#11815), CHOP (Cell Signaling Technology, #2895),” for “#9252),”, “used. In the absence of tunicamycin expressions of ATF4 and CHOP were observed, but the expression levels were quite low. In the presence of tunicamycin” for “used.”, “Bip, ATF4, and CHOP” for “phosphorylated JNK (p-JNK), a MAP kinase,”"}},
  "note": "Where a name gives a salt, the structure may show the parent alone.",
  "data": [
    {"compound": "Cc1cc(F)ccc1-c1ccc(/N=N/c2cc(S(=O)(=O)O)c3ccccc3c2N)cn1", "note": "[KUS121, 4-amino-3-[6-(4-fluoro-2-methylphenyl)pyridine-3-ylazo]naphthalene-1-sulfonic acid sodium salt]", "values": [
      {"measurement": "Viable cells (CCK-8)", "setting": "human chondrocytes", "value": "not decreased"},
      {"measurement": "Expression of phosphorylated JNK (p-JNK), Western blotting", "setting": "[1]", "value": "suppressed"},
      {"measurement": "Expression of Bip (ER stress marker), Western blotting", "setting": "[2]", "value": "suppressed"},
      {"measurement": "Expression of CHOP, Western blotting", "setting": "[2]", "value": "suppressed"},
      {"measurement": "Gene expression of MMP1, real-time PCR", "setting": "[3]", "value": "suppressed"},
      {"measurement": "Gene expression of MMP13, real-time PCR", "setting": "[3]", "value": "suppressed"},
      {"measurement": "Number of viable cells (CCK-8)", "setting": "[4]", "value": "larger"},
      {"measurement": "Volume of cartilage damage in posterolateral femoral condyle", "setting": "[5]; four weeks after the operation, FIG. 16", "value": "significantly reduced"},
      {"measurement": "Number of chondrocytes in posterolateral femoral condyle", "setting": "[5]; four weeks after the operation, FIG. 17", "value": "significantly higher"},
      {"measurement": "Modified Mankin score of posterolateral femoral condyle", "setting": "[5]; four weeks after the operation", "value": "no significant difference"},
      {"measurement": "Modified Mankin score of posterolateral femoral condyle", "setting": "[5]; two weeks after the operation", "value": "significantly lower"},
      {"measurement": "Cell death (relative number of viable cells, WST8)", "setting": "mouse chondrocytes [6]", "value": "significantly suppressed"},
      {"measurement": "Cell death (relative number of viable cells, WST8)", "setting": "mouse chondrocytes [7]", "value": "significantly suppressed"},
      {"measurement": "Caspase 3/7 activity", "setting": "[8]", "value": "not increased"},
      {"measurement": "Safranin-O staining of knee cartilage sections (indicates chondrocytes)", "setting": "[9]; versus control group (PBS), FIG. 12, 13", "value": "darker"},
      {"measurement": "ORSI score (mean of medial femur, lateral femur, medial tibia, lateral tibia)", "setting": "[9]; versus control group, FIG. 14", "value": "lower"},
      {"measurement": "Cell death (relative number of viable cells, WST8)", "setting": "mouse chondrocytes [10]", "value": "significantly suppressed"},
      {"measurement": "Expression of Casp3, an apoptosis marker, Western blotting", "setting": "[11]", "value": "suppressed"},
      {"measurement": "Expression of ATF4, Western blotting", "setting": "[12]", "value": "suppressed"},
      {"measurement": "Expression of Bip, Western blotting", "setting": "[12]", "value": "suppressed"},
      {"measurement": "Expression of CHOP, Western blotting", "setting": "[12]", "value": "suppressed"}
    ]}
  ]
}
